Measured values reported in ChEMBL document CHEMBL6153110, “Peptide Double-Stapling and Arginine N-Glycosylation Triggered the Development of Therapeutic Antimicrobial Peptides Capable of Killing Drug-Resistant Bacteria in Mice” (J Med Chem, 2025).
Values after ≈ are worked out from the molar mass of the structure shown. Positions of bridges follow the written chain, without caps; N, C: chain ends. Non-standard residues stand in square brackets, D forms with d. Residues, ends and D or L forms follow the SMILES beside them. R8 = C=CCCCCCC[C@@](C)(N)C(=O)O; S5 = C=CCCC[C@](C)(N)C(=O)O

Legend:
Format in all cases: functional
Klebsiella pneumoniae = experiment: Antimicrobial activity against Klebsiella pneumoniae ATCC 13883 assessed as growth inhibition measured after 8 hrs incubation by standard broth dilution assay
Staphylococcus aureus = experiment: Antimicrobial activity against methicillin-resistant Staphylococcus aureus ATCC 43300 assessed as growth inhibition measured after 8 hrs incubation by standard broth dilution assay
Pseudomonas aeruginosa = experiment: Antimicrobial activity against Pseudomonas aeruginosa ATCC 27853 assessed as growth inhibition measured after 8 hrs incubation by standard broth dilution assay
Streptococcus pneumoniae = experiment: Antimicrobial activity against Streptococcus pneumoniae ATCC 49619 assessed as growth inhibition measured after 8 hrs incubation by standard broth dilution assay

Compound	MIC (Klebsiella pneumoniae) [µg/mL]	MIC (Staphylococcus aureus) [µg/mL]	MIC (Pseudomonas aeruginosa) [µg/mL]	MIC (Streptococcus pneumoniae) [µg/mL]
CC(=O)N[C@@H](CC(C)C)C(=O)N[C@@H](CCCCN)C(=O)N[C@@H](CCCNC(=N)N)C(=O)N[C@H](C(=O)N[C@@H](Cc1c[nH]c2ccccc12)C(=O)N[C@@H](CCCCN)C(=O)N[C@@H](CCCNC(=N)N)C(=O)N[C@H](C(=O)N[C@@H](Cc1ccccc1)C(=O)N[C@@H](CCCCN)C(=O)N[C@@H](CC(C)C)C(=O)N[C@@H](CC(C)C)C(=O)N[C@@H](CCCCN)C(=O)N[C@@H](CCCNC(=N)N)C(=O)N[C@@H](Cc1ccc(O)cc1)C(=O)N[C@@H](Cc1c[nH]c2ccccc12)C(=O)N[C@@H](CCCNC(=N)N)C(=O)N[C@@H](CCC(N)=O)C(=O)N[C@@]1(C)CCC/C=C\CCC[C@@](C)(C(=O)N[C@@H](CCCNC(=N)N)C(N)=O)NC(=O)[C@@H]2CCCN2C(=O)[C@H](CCCCN)NC(=O)[C@H](CCCCN)NC1=O)C(C)C)C(C)C (Ac-LKRVWKRVFKLLKRYWRQ[S5]KKP[S5]R-NH2; staple (Z) 19-23)	38 (≈ 11.5 µM)	19.1 (≈ 5.78 µM)	5 (≈ 1.51 µM)	9.6 (≈ 2.9 µM)
CC(=O)N[C@@H](CC(C)C)C(=O)N[C@@H](CCCCN)C(=O)N[C@@H](CCCNC(=N)N)C(=O)N[C@H](C(=O)N[C@@H](Cc1c[nH]c2ccccc12)C(=O)N[C@@H](CCCCN)C(=O)N[C@@H](CCCNC(=N)N)C(=O)N[C@H](C(=O)N[C@@H](Cc1ccccc1)C(=O)N[C@@H](CCCCN)C(=O)N[C@@H](CC(C)C)C(=O)N[C@@H](CC(C)C)C(=O)N[C@@H](CCCCN)C(=O)N[C@@H](CCCNC(=N)N)C(=O)N[C@@H](Cc1ccc(O)cc1)C(=O)N[C@@H](Cc1c[nH]c2ccccc12)C(=O)N[C@@H](CCCNC(=N)N)C(=O)N[C@@]1(C)CCC/C=C\CCC[C@@](C)(C(=O)N[C@H](C(=O)N[C@@H](CCCNC(=N)N)C(N)=O)C(C)C)NC(=O)[C@H](CCCCN)NC(=O)[C@H](CCCCN)NC(=O)[C@H](CC(C)C)NC1=O)C(C)C)C(C)C (Ac-LKRVWKRVFKLLKRYWR[S5]LKK[S5]VR-NH2; staple (Z) 18-22)	38 (≈ 11.5 µM)	4.9 (≈ 1.49 µM)	9.8 (≈ 2.98 µM)	37.7 (≈ 11.5 µM)
CC(=O)N[C@@H](CC(C)C)C(=O)N[C@@H](CCCCN)C(=O)N[C@@H](CCCNC(=N)N)C(=O)N[C@H](C(=O)N[C@@H](Cc1c[nH]c2ccccc12)C(=O)N[C@@H](CCCCN)C(=O)N[C@@H](CCCNC(=N)N)C(=O)N[C@H](C(=O)N[C@@H](Cc1ccccc1)C(=O)N[C@@H](CCCCN)C(=O)N[C@@H](CC(C)C)C(=O)N[C@@H](CC(C)C)C(=O)N[C@@H](CCCCN)C(=O)N[C@@H](CCCNC(=N)N)C(=O)N[C@@H](Cc1ccc(O)cc1)C(=O)N[C@]1(C)CCCCCC/C=C\CCC[C@@](C)(C(=O)N[C@@H](CCCNC(=N)N)C(N)=O)NC(=O)[C@@H]2CCCN2C(=O)[C@H](CCCCN)NC(=O)[C@H](CCCCN)NC(=O)[C@H](CC(C)C)NC(=O)[C@H](CCC(N)=O)NC(=O)[C@H](CCCNC(=N)N)NC1=O)C(C)C)C(C)C (Ac-LKRVWKRVFKLLKRY[R8]RQLKKP[S5]R-NH2; staple (Z) 16-23)	2.5 (≈ 0.764 µM)	9.7 (≈ 2.96 µM)	2.6 (≈ 0.794 µM)	19 (≈ 5.8 µM)
CC(=O)N[C@@H](CC(C)C)C(=O)N[C@@H](CCCCN)C(=O)N[C@@H](CCCNC(=N)N)C(=O)N[C@H](C(=O)N[C@@H](Cc1c[nH]c2ccccc12)C(=O)N[C@@H](CCCCN)C(=O)N[C@@H](CCCNC(=N)N)C(=O)N[C@H](C(=O)N[C@@H](Cc1ccccc1)C(=O)N[C@@H](CCCCN)C(=O)N[C@@H](CC(C)C)C(=O)N[C@@H](CC(C)C)C(=O)N[C@@H](CCCCN)C(=O)N[C@@H](CCCNC(=N)N)C(=O)N[C@@H](Cc1ccc(O)cc1)C(=O)N[C@@]1(C)CCC/C=C\CCC[C@@](C)(C(=O)N[C@@H](CCCCN)C(=O)N2CCC[C@H]2C(=O)N[C@H](C(=O)N[C@@H](CCCNC(=N)N)C(N)=O)C(C)C)NC(=O)[C@H](CC(C)C)NC(=O)[C@H](CCC(N)=O)NC(=O)[C@H](CCCNC(=N)N)NC1=O)C(C)C)C(C)C (Ac-LKRVWKRVFKLLKRY[S5]RQL[S5]KPVR-NH2; staple (Z) 16-20)	38 (≈ 11.9 µM)	2.5 (≈ 0.78 µM)	5 (≈ 1.56 µM)	19 (≈ 5.93 µM)
CC(=O)N[C@@H](CC(C)C)C(=O)N[C@@H](CCCCN)C(=O)N[C@@H](CCCNC(=N)N)C(=O)N[C@H](C(=O)N[C@@H](Cc1c[nH]c2ccccc12)C(=O)N[C@@H](CCCCN)C(=O)N[C@@H](CCCNC(=N)N)C(=O)N[C@H](C(=O)N[C@@H](Cc1ccccc1)C(=O)N[C@@H](CCCCN)C(=O)N[C@@H](CC(C)C)C(=O)N[C@@H](CC(C)C)C(=O)N[C@@H](CCCCN)C(=O)N[C@@H](CCCNC(=N)N)C(=O)N[C@]1(C)CCCCCC/C=C\CCC[C@@](C)(C(=O)N[C@H](C(=O)N[C@@H](CCCNC(=N)N)C(N)=O)C(C)C)NC(=O)[C@H](CCCCN)NC(=O)[C@H](CCCCN)NC(=O)[C@H](CC(C)C)NC(=O)[C@H](CCC(N)=O)NC(=O)[C@H](CCCNC(=N)N)NC(=O)[C@H](Cc2c[nH]c3ccccc23)NC1=O)C(C)C)C(C)C (Ac-LKRVWKRVFKLLKR[R8]WRQLKK[S5]VR-NH2; staple (Z) 15-22)	38 (≈ 11.5 µM)	4.9 (≈ 1.49 µM)	9.9 (≈ 3 µM)	37.7 (≈ 11.4 µM)
CC(=O)N[C@@H](CC(C)C)C(=O)N[C@@H](CCCCN)C(=O)N[C@@H](CCCNC(=N)N)C(=O)N[C@H](C(=O)N[C@@H](Cc1c[nH]c2ccccc12)C(=O)N[C@@H](CCCCN)C(=O)N[C@@H](CCCNC(=N)N)C(=O)N[C@H](C(=O)N[C@@H](Cc1ccccc1)C(=O)N[C@@H](CCCCN)C(=O)N[C@@H](CC(C)C)C(=O)N[C@@H](CC(C)C)C(=O)N[C@@H](CCCCN)C(=O)N[C@@H](CCCNC(=N)N)C(=O)N[C@@]1(C)CCC/C=C\CCC[C@@](C)(C(=O)N[C@@H](CCCCN)C(=O)N[C@@H](CCCCN)C(=O)N2CCC[C@H]2C(=O)N[C@H](C(=O)N[C@@H](CCCNC(=N)N)C(N)=O)C(C)C)NC(=O)[C@H](CCC(N)=O)NC(=O)[C@H](CCCNC(=N)N)NC(=O)[C@H](Cc2c[nH]c3ccccc23)NC1=O)C(C)C)C(C)C (Ac-LKRVWKRVFKLLKR[S5]WRQ[S5]KKPVR-NH2; staple (Z) 15-19)	38 (≈ 11.7 µM)	19.1 (≈ 5.89 µM)	9.9 (≈ 3.05 µM)	37.7 (≈ 11.6 µM)
CC(=O)N[C@@H](CC(C)C)C(=O)N[C@@H](CCCCN)C(=O)N[C@@H](CCCNC(=N)N)C(=O)N[C@H](C(=O)N[C@@H](Cc1c[nH]c2ccccc12)C(=O)N[C@@H](CCCCN)C(=O)N[C@@H](CCCNC(=N)N)C(=O)N[C@H](C(=O)N[C@@H](Cc1ccccc1)C(=O)N[C@@H](CCCCN)C(=O)N[C@@H](CC(C)C)C(=O)N[C@]1(C)CCCCCC/C=C\CCC[C@@](C)(C(=O)N[C@@H](CCCCN)C(=O)N[C@@H](CCCCN)C(=O)N2CCC[C@H]2C(=O)N[C@H](C(=O)N[C@@H](CCCNC(=N)N)C(N)=O)C(C)C)NC(=O)[C@H](CCC(N)=O)NC(=O)[C@H](CCCNC(=N)N)NC(=O)[C@H](Cc2c[nH]c3ccccc23)NC(=O)[C@H](Cc2ccc(O)cc2)NC(=O)[C@H](CCCNC(=N)N)NC(=O)[C@H](CCCCN)NC1=O)C(C)C)C(C)C (Ac-LKRVWKRVFKL[R8]KRYWRQ[S5]KKPVR-NH2; staple (Z) 12-19)	38 (≈ 11.4 µM)	4.9 (≈ 1.47 µM)	2.6 (≈ 0.78 µM)	4.7 (≈ 1.41 µM)
